In patent US4450269A, “Mono-5-substituted-3-chloro-4H-1,2,6-thiadiazin-4-one antifungal agents” (FMC Corporation, priority 1980, dated 1984):
Structures can show the parent of a compound that is named as a salt.

Tested on: Helminthosporium oryzae
Test: Mycelial growth test
Settings: for Percent Fungus Growth Inhibition: HO, 72 hours; for inhibition at 5 ppm / inhibition at 10 ppm / inhibition at 20 ppm / inhibition at 40 ppm: Bipolaris oryzae, 72 h; for inhibition at 5 ppm: read-out: Percent Fungus Growth Inhibition, HO, 5 ppm, 72 hours; for inhibition at 10 ppm: read-out: Percent Fungus Growth Inhibition, HO, 10 ppm, 72 hours; for inhibition at 20 ppm: read-out: Percent Fungus Growth Inhibition, HO, 20 ppm, 72 hours; for inhibition at 40 ppm: read-out: Percent Fungus Growth Inhibition, HO, 40 ppm, 72 hours
Description: HO = Helminthosporium oryzae
Aliquots of previously prepared solutions of active ingredient in acetone were added to tubes containing 20 ml of sterile, melted potato dextrose agar that had been cooled to 50° C. to provide mixtures of 40, 20, 10, 5 and 2.5 ppm. The tubes were shaken to ensure thorough mixing of the chemical with the agar, and the mixture poured into petri dishes having 4 quadrants to solidify. Each quadrant was inoculated with a 4 mm diameter disc of agar containing mycelium of the test fungi and incubated at 25° C. for 72 hours during which the samples were alternately exposed to light for 12 hours and to darkness for 12 hours. Growth was measured at the end of the incubation period by measuring the diameter of each fungus colony. Two measurements of the diameter, perpendicular to each other, were taken and the values averaged. Data are reported as percent inhibition (%I) by the following formula: [formula] Captan and chlorothalonil were used as standards for comparison.

Molecule	inhibition at 5 ppm [%]	inhibition at 10 ppm [%]	inhibition at 20 ppm [%]	inhibition at 40 ppm [%]	other results
3-chloro-5-(bromophenoxy)-4H-1,2,6-thiadiazin-4-one [Compound 33]					Percent Fungus Growth Inhibition (5 ppm): 83%; Percent Fungus Growth Inhibition (10 ppm): 91%; Percent Fungus Growth Inhibition (20 ppm): 100%; Percent Fungus Growth Inhibition (40 ppm): 100%
3-chloro-5-[methylaminocarbonyloxy)phenoxyl]-4H-1,2,6-thiadiazin-4-one [Compound 36]					Percent Fungus Growth Inhibition (5 ppm): 78%; Percent Fungus Growth Inhibition (10 ppm): 78%; Percent Fungus Growth Inhibition (20 ppm): 89%; Percent Fungus Growth Inhibition (40 ppm): 100%
O=c1c(Cl)nsnc1Oc1ccccc1 [Compound 2, 3-chloro-5-phenoxy-4H--1,2,6-thiadiazin-4-one]	55	64	100	100	
Cc1ccc(Oc2nsnc(Cl)c2=O)cc1 [Compound 3, 3-chloro-5-(4-methylphenoxy)-4H--1,2,6-thiadiazin-4-one]	55	64	100	100	
CC(C)(C)c1ccc(Oc2nsnc(Cl)c2=O)cc1 [Compound 4, 3-chloro-5-(4-tert-butylphnoxy)-4H--1,2,6-thiadiazin-4-one]	0	0	24	33	
COc1ccc(Oc2nsnc(Cl)c2=O)cc1 [Compound 5, 3-chloro-5-(4-methoxyphenoxy)4H--1,2,6-thiadiazin-4-one]	50	64	73	100	
CCCCOc1ccc(Oc2nsnc(Cl)c2=O)cc1 [Compound 6, 3-chloro-5-(4-n-butoxyphenoxy)-4H--1,2,6-thiadiazin-4-one]	0	0	0	48	
CCOC(=O)c1ccc(Oc2nsnc(Cl)c2=O)cc1 [Compound 7, 3-chloro-5-(4-ethoxycarbonylphenoxy)-4H--1,2,6-thiadiazin-4-one]	48	43	100	100	
CC(=O)Nc1ccc(Oc2nsnc(Cl)c2=O)cc1 [Compound 8, 5-(4-acetylaminophenoxy)-3-chloro-4H--1,2,6-thiadiazin-4-one]	24	33	0	81	
O=c1c(Cl)nsnc1Oc1ccc([N+](=O)[O-])cc1 [Compound 9, 3-chloro-5-(4-nitrophenoxy)-4H--1,2,6-thiadiazin-4-one]	50	82	86	100	
N#Cc1ccc(Oc2nsnc(Cl)c2=O)cc1 [Compound 10, 3-chloro-5-(4-cyanophenoxy)-4H--1,2,6-thiadiazin-4-one]	57	52	100	100	
O=c1c(Cl)nsnc1Oc1ccc(F)cc1 [Compound 11, 3-chloro-5-(4-fluorophenoxy)-4H--1,2,6-thiadiazin-4-one]	62	100	100	100	
O=c1c(Cl)nsnc1Oc1ccc(Cl)cc1 [Compound 12, 3-chloro-5-(4-chlorophenoxy)-4H--1,2,6-thiadiazin-4-one]	59	59	100	100	
O=c1c(Cl)nsnc1Oc1cccc(Cl)c1 [Compound 13, 3-chloro-5-(3-chlorophenoxy)-4H--1,2,6-thiadiazin-4-one]	71	86	76	81	
O=c1c(Cl)nsnc1Oc1ccccc1Cl [Compound 14, 3-chloro-5-(2-chlorophenoxy)-4H--1,2,6-thiadiazin-4-one]	71	71	100	100	
O=c1c(Cl)nsnc1Oc1ccc(Br)cc1 [Compound 15, 3-chloro-5-(4-bromophenoxy)-4H--1,2,6-thiadiazin-4-one]	57	90	95	100	
O=c1c(Cl)nsnc1Oc1ccc(Cl)c(Cl)c1 [Compound 16, 3-chloro-5-(3,4-dichlorophenoxy)-4H--1,2,6-thiadiazin-4-one]	64	55	55	82	
O=c1c(Cl)nsnc1Oc1ccc(Cl)cc1Cl [Compound 17, 3-chloro-5-(2,4-dichlorophenoxy)-4H--1,2,6-thiadiazin-4-one]	100	100	100	100	
O=c1c(Cl)nsnc1Oc1c(Cl)cccc1Cl [Compound 18, 3-chloro-5-(2,6-dichlorophenoxy)-4H--1,2,6-thiadiazin-4-one]	86	86	100	100	
O=c1c(Cl)nsnc1Oc1cccc(Cl)c1Cl [Compound 19, 3-chloro-5-(2,3-dichlorophenoxy)-4H--1,2,6-thiadiazin-4-one]	100	90	100	100	
O=c1c(Cl)nsnc1Oc1cc(Cl)cc(Cl)c1 [Compound 20, 3-chloro-5-(3,5-dichlorophenoxy)-4H--1,2,6-thiadiazin-4-one]	100	100	100	100	
Cc1cccc(Oc2nsnc(Cl)c2=O)c1 [Compound 21, 3-chloro-5-(3-methylphenoxy)-4H--1,2,6-thiadiazin-4-one]	64	86	100	100	
Cc1ccccc1Oc1nsnc(Cl)c1=O [Compound 22, 3-chloro-5-(2-methylphenoxy)-4H--1,2,6-thiadiazin-4-one]	100	100	100	100	
Cc1ccc(Oc2nsnc(Cl)c2=O)c(C)c1 [Compound 23, 3-chloro-5-(2,4-dimethylphenoxy)-4H--1,2,6-thiadiazin-4-one]	100	100	100	100	
Cc1cccc(C)c1Oc1nsnc(Cl)c1=O [Compound 24, 3-chloro-5-(2,6-dimethylphenoxy)-4H--1,2,6-thiadiazin-4-one]	86	100	100	100	
Cc1cc(C)cc(Oc2nsnc(Cl)c2=O)c1 [Compound 25, 3-chloro-5-(3,5-dimethylphenoxy)-4H--1,2,6-thiadiazin-4-one]	79	100	100	100	
Nc1ccc(Oc2nsnc(Cl)c2=O)cc1 [Compound 26, 5-(4-aminophenoxy)-3-chloro-4H--1,2,6-thiadiazin-4-one]			57		Percent Fungus Growth Inhibition (5 ppm): 43%; Percent Fungus Growth Inhibition (40 ppm): 100%
Nc1ccc(Oc2nsnc(Cl)c2=O)cc1 [Compound 27, 5-(4-aminophenoxy)-3-chloro-4H--1,2,6-thiadiazine-4-one hydrochloride]					Percent Fungus Growth Inhibition (5 ppm, hydrochloride): 0%; Percent Fungus Growth Inhibition (10 ppm, hydrochloride): 21%; Percent Fungus Growth Inhibition (20 ppm, hydrochloride): 43%; Percent Fungus Growth Inhibition (40 ppm, hydrochloride): 57%
CNC(=O)Nc1ccc(Oc2nsnc(Cl)c2=O)cc1 [Compound 28, 3-chloro-5-[4-(3-methylureido)-phenoxy]-4H--1,2,6-thiadiazin-4-one]	29	29	21	64	
O=C(Nc1ccccc1)Nc1ccc(Oc2nsnc(Cl)c2=O)cc1 [Compound 29, 3-chloro-5-[4-(3-phenylureido)-phenoxy]-4H--1,2,6-thiadiazin-4-one]	0	0	14	0	
